Test results as given in US20130158049A1, “7-AZAINDOLE INHIBITORS OF CRAC” (Hoffmann-La Roche Inc., priority 2011, published 2013).

Test system: Jurkat IL-2 Production
Test: Jurkat IL-2 Production Assay
Type: cell-based
Details: Homo sapiens; Jurkat cell (ATCC); PHA 5 μg/mL with 1% FBS, or PMA/Ionomycin with 30% FBS (table does not say which); incubation 18 h~20 h
Method: Jurkat IL-2 Production Assay
Cell: Jurkat cell (ATCC) was grown in RPMI 1640 with 10% FBS and 1% penicillin/streptomycin. The cell density was kept at 1.2˜1.8×10^6/mL in culture flask before seeding into culture plate, and the cell density in the plate was 0.5×10^6/[…]/well.
Culture media: RPMI 1640 with 1% FBS or 30% FBS for high serum assay.
Test compound: serial dilution was done in 100% DMSO, and intermediate dilution was done with RPMI 1640 medium with 1% FBS. The DMSO final concentration in culture well was 0.25%.
Stimulant: PHA (Sigma#L9017-10MG) was used for the assay with 1% FBS in culture medium, and added after 10 minutes exposure of cell to compound/DMSO. The PHA final concentration in culture well was 5 μg/mL. PMA (Sigma# P-8139 5MG)/Ionomycin (Sigma# I0634-5MG) was used for the assay with 30% FBS in culture medium, and added at same time point as the 1% FBS culture assay. The final concentration of PMA was 50 ng/mL, and Ionomycin final concentration was 500 ng/mL.
Incubation: at 37° C. with 5% CO2 and 95% humidity for 18 h˜20 h.
IC50: IC50 was calculated with the data analysis software XLfit4, General Pharmacology model 251.

Structure (SMILES)	IC50 [nM]
COC(=O)c1ccc(-c2cnc3[nH]c(-c4c(F)cccc4F)cc3c2)c(C)c1 [Example 1, 4-[2-(2,6-Difluoro-phenyl)-1H-pyrrolo[2,3-b]pyridin-5-yl]-3-methyl-benzoic acid methyl ester]	588
COc1ccc(-c2cnc3[nH]c(-c4c(F)cccc4F)cc3c2)c(OC)c1 [Example 2, 2-(2,6-Difluoro-phenyl)-5-(2,4-dimethoxy-phenyl)-1H-pyrrolo[2,3-b]pyridine]	150
Cc1cc(S(=O)(=O)N(C)C)ccc1-c1cnc2[nH]c(-c3c(F)cccc3F)cc2c1 [Example 3, 4-[2-(2,6-Difluoro-phenyl)-1H-pyrrolo[2,3-b]pyridin-5-yl]-3,N,N-trimethyl-benzenesulfonamide]	124
CCn1nc(-c2cccnc2)cc1-c1cnc2[nH]c(-c3c(F)cccc3F)cc2c1 [Example 4, 2-(2,6-Difluoro-phenyl)-5-(2-ethyl-5-pyridin-3-yl-2H-pyrazol-3-yl)-1H-pyrrolo[2,3-b]pyridine]	134
Cc1sc(-c2cccnc2)nc1-c1cnc2[nH]c(-c3c(F)cccc3F)cc2c1 [Example 5, 2-(2,6-Difluoro-phenyl)-5-(5-methyl-2-pyridin-3-yl-thiazol-4-yl)-1H-pyrrolo[2,3-b]pyridine]	90
Cn1nc(C(F)(F)F)cc1-c1cnc2[nH]c(-c3c(F)cccc3F)cc2c1 [Example 6, 2-(2,6-Difluoro-phenyl)-5-(2-methyl-5-trifluoromethyl-2H-pyrazol-3-yl)-1H-pyrrolo[2,3-b]pyridine]	113
CCn1nc(C(F)(F)F)cc1-c1cnc2[nH]c(-c3c(F)cccc3F)cc2c1 [Example 7, 2-(2,6-Difluoro-phenyl)-5-(2-ethyl-5-trifluoromethyl-2H-pyrazol-3-yl)-1H-pyrrolo[2,3-b]pyridine]	54
Cc1sc(-c2ncco2)nc1-c1cnc2[nH]c(-c3c(F)cccc3F)cc2c1 [Example 8, 2-(2,6-Difluoro-phenyl)-5-(5-methyl-2-oxazol-2-yl-thiazol-4-yl)-1H-pyrrolo[2,3-b]pyridine]	102
CCn1nc(-c2cccnc2)nc1-c1cnc2[nH]c(-c3c(F)cccc3F)cc2c1 [Example 9, 2-(2,6-Difluoro-phenyl)-5-(2-ethyl-5-pyridin-3-yl-2H-[1,2,4]-triazol-3-yl)-1H-pyrrolo[2,3-b]pyridine]	56
Cn1nc(-c2cccnc2)nc1-c1cnc2[nH]c(-c3c(F)cccc3F)cc2c1 [Example 10, 2-(2,6-Difluoro-phenyl)-5-(2-methyl-5-pyridin-3-yl-2H-[1,2,4]triazol-3-yl)-1H-pyrrolo[2,3-b]pyridine]	106
CNC(=O)c1cc(C)c(-c2cnc3[nH]c(-c4c(F)cccc4F)cc3c2)cn1 [Example 11, 5-[2-(2,6-Difluoro-phenyl)-1H-pyrrolo[2,3-b]pyridin-5-yl]-4-methyl-pyridine-2-carboxylic acid methylamide]	242
Cc1cc(C(=O)NCCO)ncc1-c1cnc2[nH]c(-c3c(F)cccc3F)cc2c1 [Example 12, 5-[2-(2,6-Difluoro-phenyl)-1H-pyrrolo[2,3-b]pyridin-5-yl]-4-methyl-pyridine-2-carboxylic acid (2-hydroxy-ethyl)-amide]	997
CCc1sc(-c2cccnc2)nc1-c1cnc2[nH]c(-c3c(F)cccc3F)cc2c1 [Example 13, 2-(2,6-Difluoro-phenyl)-5-(5-ethyl-2-pyridin-3-yl-thiazol-4-yl)-1H-pyrrolo[2,3-b]pyridine]	15
Cc1sc(-c2cnccn2)nc1-c1cnc2[nH]c(-c3c(F)cccc3F)cc2c1 [Example 14, 2-(2,6-Difluoro-phenyl)-5-(5-methyl-2-pyrazin-2-yl-thiazol-4-yl)-1H-pyrrolo[2,3-b]pyridine]	36
Cn1nc(C(F)(F)F)cc1-c1cnc2[nH]c(-c3c(F)cccc3Cl)cc2c1 [Example 15, 2-(2-Chloro-6-fluoro-phenyl)-5-(2-methyl-5-trifluoromethyl-2H-pyrazol-3-yl)-1H-pyrrolo[2,3-b]pyridine]	53
Cc1cc(S(=O)(=O)N(C)C)ccc1-c1cnc2[nH]c(-c3c(F)cccc3Cl)cc2c1 [Example 16, 4-[2-(2-Chloro-6-fluoro-phenyl)-1H-pyrrolo[2,3-b]pyridin-5-yl]-3,N,N-trimethyl-benzenesulfonamide]	99

Structure (SMILES)	IC50 [nM]
CCn1nc(-c2cnccn2)cc1-c1cnc2[nH]c(-c3c(F)cccc3Cl)cc2c1 [Example 17, 2-(2-Chloro-6-fluoro-phenyl)-5-(2-ethyl-5-pyrazin-2-yl-2H-pyrazol-3-yl)-1H-pyrrolo[2,3-b]pyridine]	15
Cc1sc(-c2cnccn2)nc1-c1cnc2[nH]c(-c3c(F)cccc3Cl)cc2c1 [Example 18, 2-(2-Chloro-6-fluoro-phenyl)-5-(5-methyl-2-pyrazin-2-yl-thiazol-4-yl)-1H-pyrrolo[2,3-b]pyridine]	39
COc1cc(C#N)ccc1-c1cnc2[nH]c(-c3c(F)cccc3Cl)cc2c1 [Example 19, 4-[2-(2-Chloro-6-fluoro-phenyl)-1H-pyrrolo[2,3-b]pyridin-5-yl]-3-methoxy-benzonitrile]	35
Cc1cc(S(C)(=O)=O)ncc1-c1cnc2[nH]c(-c3c(F)cccc3Cl)cc2c1 [Example 20, 2-(2-Chloro-6-fluoro-phenyl)-5-(6-methanesulfonyl-4-methyl-pyridin-3-yl)-1H-pyrrolo[2,3-b]pyridine]	72
CCn1nc(-c2cnccn2)cc1-c1cnc2[nH]c(-c3ccncc3C)cc2c1 [Example 21, 5-(2-Ethyl-5-pyrazin-2-yl-2H-pyrazol-3-yl)-2-(3-methyl-pyridin-4-yl)-1H-pyrrolo[2,3-b]pyridine]	158
CCn1nc(-c2cccnc2)cc1-c1cnc2[nH]c(-c3ccncc3C)cc2c1 [Example 22, 5-(1-Ethyl-3-(pyridin-3-yl)-1H-pyrazol-5-yl)-2-(3-methylpyridin-4-yl)-1H-pyrrolo[2,3-b]pyridine]	163
CCn1nc(C(F)(F)F)cc1-c1cnc2[nH]c(-c3ccncc3C)cc2c1 [Example 23, 5-(1-ethyl-3-(trifluoromethyl)-1H-pyrazol-5-yl)-2-(3-methylpyridin-4-yl)-1H-pyrrolo[2,3-b]pyridine]	145
Cc1cc(S(C)(=O)=O)ncc1-c1cnc2[nH]c(-c3ccncc3C)cc2c1 [Example 24, 5-(4-Methyl-6-(methylsulfonyl)pyridin-3-yl)-2-(3-methylpyridin-4-yl)-1H-pyrrolo[2,3-b]pyridine]	248
CCn1nc(-c2cnccn2)cc1-c1cnc2[nH]c(-c3cnccc3C)cc2c1 [Example 26, 5-(2-Ethyl-5-pyrazin-2-yl-2H-pyrazol-3-yl)-2-(4-methyl-pyridin-3-yl)-1H-pyrrolo[2,3-b]pyridine]	428
Cc1cc(S(C)(=O)=O)ncc1-c1cnc2[nH]c(-c3cnccc3C)cc2c1 [Example 27, 5-(4-Methyl-6-(methylsulfonyl)pyridin-3-yl)-2-(4-methylpyridin-3-yl)-1H-pyrrolo[2,3-b]pyridine]	438
CCn1nc(-c2cccnc2)cc1-c1cnc2[nH]c(-c3cnccc3Cl)cc2c1 [Example 28, 2-(4-chloropyridin-3-yl)-5-(1-ethyl-3-(pyridin-3-yl)-1H-pyrazol-5-yl)-1H-pyrrolo[2,3-b]pyridine]	185
Cc1cc(S(C)(=O)=O)ncc1-c1cnc2[nH]c(-c3cnccc3Cl)cc2c1 [Example 29, 2-(4-Chloropyridin-3-yl)-5-(4-methyl-6-(methylsulfonyl)pyridin-3-yl)-1H-pyrrolo[2,3-b]pyridine]	275
CCn1nc(-c2cccnc2)cc1-c1cnc2[nH]c(-c3c(C)noc3C)cc2c1 [Example 30, 2-(3,5-Dimethyl-isoxazol-4-yl)-5-(2-ethyl-5-pyridin-3-yl-2H-pyrazol-3-yl)-1H-pyrrolo[2,3-b]pyridine]	441
Cc1cc(S(C)(=O)=O)ncc1-c1cnc2[nH]c(C3CCCCC3)cc2c1 [Example 31, 2-cyclohexyl-5-(4-methyl-6-(methylsulfonyl)pyridin-3-yl)-1H-pyrrolo[2,3-b]pyridine]	107
CCn1nc(-c2cccnc2)cc1-c1cnc2[nH]c(C3CCCCC3)cc2c1 [Example 32, 2-Cyclohexyl-5-(1-ethyl-3-(pyridin-3-yl)-1H-pyrazol-5-yl)-1H-pyrrolo[2,3-b]pyridine]	108
CCn1nc(-c2cnccn2)cc1-c1cnc2[nH]c(C3CCCCC3)cc2c1 [Example 33, 2-Cyclohexyl-5-(1-ethyl-3-(pyrazin-2-yl)-1H-pyrazol-5-yl)-1H-pyrrolo[2,3-b]pyridine]	111
